Test results as given in patent US20210171589A1, “TRUNCATED CARTILAGE-HOMING PEPTIDES AND PEPTIDE COMPLEXES AND METHODS OF USE THEREOF” (BLAZE BIOSCIENCE, INC., priority 2018, published 2021).

Columns and labels:
[1] = system: cartilage (intervertebral discs, knee joints); assay: Whole body autoradiography of radiolabeled cartilage homing peptides; type: in vivo, Female Harlan athymic nude mice; conditions: for Signal of folded knotted peptide as compared to the linearized peptide of SEQ ID NO: 218: TABLE 8 versus TABLE 9; for Signal of radiolabeled peptide in IVD as a Percentage of Blood: intervertebral discs
Description: This example illustrates peptide homing to cartilage mice 5 minutes to 48 hours after administration of a radiolabeled peptide. Signal from the radiolabeled peptides was found in all types of cartilage at each time point examined. Each peptide was radiolabeled by methylating […] as described in EXAMPLE 2. As such, the peptide may contain methyl or dimethyl lysines and a methylated or dimethlyated amino terminus. A dose of 100 nmol radiolabeled peptide was administered via tail vein injection in Female Harlan athymic nude mice, weighing 20-25 g. The experiment was done in duplicate (n=2 animals per group). Each radiolabeled peptide was allowed to freely circulate within the animal for the described time period before the animals were euthanized and sectioned.
Whole body autoradiography (WBA) sagittal sectioning was performed as follows. At the end of the dosing period, mice were frozen in a hexane/dry ice bath and then embedded in a frozen block of carboxymethylcellulose. […] Sections were allowed to dessicate in a freezer prior to imaging. For the autoradiography imaging, tape mounted thin sections were freeze dried and radioactive samples were exposed to phosphoimager plates. These plates were developed and the signal (densitometry) from each organ was normalized to the signal found in the cardiac blood of each animal. A signal in tissue darker than the signal expected from blood in that tissue indicates accumulation in a region, tissue, structure, or cell.

[2] = Stability testing of peptide in solution, RP-HPLC; type: physicochemical; conditions: 5 mg/mL in 50 mM Tris, 5% Mannitol, pH 7.6
Description: This example describes stability testing of peptides of the present disclosure. A 5 mg/mL solution of SEQ ID NO: 149 (also disclosed as SEQ ID NO: 46; non-GS version of SEQ ID NO: 149/SEQ ID NO: 46 are shown in SEQ ID NO: 128 and SEQ ID NO: 205) was prepared in 50 mM Tris, 5% Mannitol, pH 7.6. The stability of SEQ ID NO: 149 in solution was assessed by stressing the sample at 40° C. for 10 days and analyzed by RP-HPLC side-by-side with an unstressed sample prepared under the same conditions and stored at −20° C. […] This change was predominantly the result of an increase in area of one predominant impurity peak eluting after the main peak in the sample that was exposed to the higher temperature. No other impurities present in the initial sample increased substantially and no substantial new impurities were seen.

cartilage = assay: Peptide homing with kidney ligation (autoradiography); type: in vivo, Female Harlan athymic nude mice; conditions: mice with ligated kidneys, 50-100 nmol via tail vein injection
Description: This example describes a dosing scheme for administering peptides to mice in conjunction with kidney ligation. Different dosages of the peptides of SEQ ID NO:149 and SEQ ID NO:150 were administered to Female Harlan athymic nude mice, weighing 20 g-25 g, via tail vein injection (n=2 mice per peptide). The experiment was done in duplicates. The kidneys were ligated to prevent renal filtration of the peptides. Each peptide was radiolabeled by methylating lysines and the N-terminus, so the actual binding agent may contain methyl or dimethyl lysine(s) and a methylated or dimethylated amino terminus.
A target dosage of 50-100 nmol of each peptide carrying 10-25 uCi of ^14C was administered to Female Harlan athymic nude mice while anesthetized. Each peptide was allowed to freely circulate within the animal before the animals were euthanized and sectioned.
This example illustrates peptide homing to cartilage of mice with kidneys that were ligated prior to peptide administration. At the end of the dosing period in EXAMPLE 4, mice were frozen in a hexane/dry ice bath and then frozen in a block of carboxymethylcellulose. […]

[3] = 0.08 hours after 100 nmol via tail vein injection
[4] = 0.5 hours after 100 nmol via tail vein injection
[5] = 1 hour after 100 nmol via tail vein injection
[6] = 3 hours after 100 nmol via tail vein injection
[7] = 8 hours after 100 nmol via tail vein injection
[8] = 24 hours after 100 nmol via tail vein injection
[9] = 48 hours after 100 nmol via tail vein injection

GSGVPINVRCRGSRDCLDPCRRAGMRFGRCINSRCHCTP [SEQ ID NO: 149]
Signal of folded knotted peptide as compared to the linearized peptide of SEQ ID NO: 218 ([1]; at 3 hours): ~20 fold | Signal of folded knotted peptide as compared to the linearized peptide of SEQ ID NO: 218 ([1]; at 24 hours): ~50 fold | Signal of radiolabeled peptide in IVD as a Percentage of Blood [1, 3]: 164 Percentage of Blood | Signal of radiolabeled peptide in IVD as a Percentage of Blood [1, 4]: 369 Percentage of Blood | Signal of radiolabeled peptide in IVD as a Percentage of Blood [1, 5]: 961 Percentage of Blood | Signal of radiolabeled peptide in IVD as a Percentage of Blood [1, 6]: 3213 Percentage of Blood | Signal of radiolabeled peptide in IVD as a Percentage of Blood [1, 7]: 3777 Percentage of Blood | Signal of radiolabeled peptide in IVD as a Percentage of Blood [1, 8]: 5391 Percentage of Blood | Signal of radiolabeled peptide in IVD as a Percentage of Blood [1, 9]: 3320 Percentage of Blood | Signal of radiolabeled peptide in Knee Joints as a Percentage of Blood [1, 3]: 404 Percentage of Blood | Signal of radiolabeled peptide in Knee Joints as a Percentage of Blood [1, 4]: 510 Percentage of Blood | Signal of radiolabeled peptide in Knee Joints as a Percentage of Blood [1, 5]: 1114 Percentage of Blood | Signal of radiolabeled peptide in Knee Joints as a Percentage of Blood [1, 6]: 4059 Percentage of Blood | Signal of radiolabeled peptide in Knee Joints as a Percentage of Blood [1, 7]: 4990 Percentage of Blood | Signal of radiolabeled peptide in Knee Joints as a Percentage of Blood [1, 8]: 2137 Percentage of Blood | Signal of radiolabeled peptide in Knee Joints as a Percentage of Blood [1, 9]: 843 Percentage of Blood | Homing of radiolabeled peptide to cartilage ([1]; mice, 100 nmol via tail vein injection, 5 minutes to 48 hours): homed to and accumulated in the cartilage | Purity by RP-HPLC of stressed sample ([2]; 40° C. for 10 days): 93.5% | Visual inspection of the samples (solubility, precipitation) ([2]; 40° C. for 10 days versus −20° C.): no change in solubility | Initial purity by RP-HPLC (non-stressed sample) ([2]; stored at −20° C.): 96.4%

GSKCRGSRDCLDPCKKAGMRFGKCINSKCHCTP [SEQ ID NO: 27]
Peptide distribution (14C signal) (cartilage): distribution in nasal, spinal, tracheal, and other cartilage
